# Experimental data from ChEMBL document CHEMBL1201861, “Genomics of Drug Sensitity in Cancer screening data, Wellcome Trust Sanger Institute”.
# Legend:
# Experiment in all cases: cells
# [1] = test system: COR-L88; type: functional, cell-based; details: Homo sapiens;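 also: growth inhibition of COR-L88 cells, read out with a cell viability assay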
# Description: SANGER: Inhibition of human COR-L88 cell growth in a cell viability assay.
# [2] = test system: Ca9-22; type: functional, cell-based, Homo sapiens; details: Homo sapiens, Ca9-22;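 also: growth inhibition of Ca9-22 cells, read out with a cell viability assay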
# Description: SANGER: Inhibition of human Ca9-22 cell growth in a cell viability assay.
# [3] = test system: D-336MG; type: functional, cell-based, Homo sapiens; details: Homo sapiens, D-336MG
# Description: SANGER: Inhibition of human D-336MG cell growth in a cell viability assay.
# [4] = test system: EFO-27; type: functional, cell-based, Homo sapiens; details: Homo sapiens, EFO-27;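 also: growth inhibition of EFO-27 cells, read out with a cell viability assay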
# Description: SANGER: Inhibition of human EFO-27 cell growth in a cell viability assay.
# [5] = test system: EM-2; type: functional, cell-based; details: Homo sapiens;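 also: growth inhibition of EM-2 cells, read out with a cell viability assay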
# Description: SANGER: Inhibition of human EM-2 cell growth in a cell viability assay.
# [6] = test system: ES7; type: functional, cell-based, Homo sapiens; details: Homo sapiens, ES7;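 also: growth inhibition of cultured human ES7 cells, read out as cell viability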
# Description: SANGER: Inhibition of human ES7 cell growth in a cell viability assay.
# [7] = test system: FaDu; type: functional, cell-based, Homo sapiens; details: Homo sapiens, FaDu;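 also: cell viability readout of growth inhibition in FaDu cells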
# Description: SANGER: Inhibition of human FADU cell growth in a cell viability assay.
# [8] = test system: GR-ST; type: functional, cell-based; details: Homo sapiens
# Description: SANGER: Inhibition of human GR-ST cell growth in a cell viability assay.
# [9] = test system: HSC-2; type: functional, cell-based, Homo sapiens; details: Homo sapiens, HSC-2;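 also: growth inhibition of human HSC-2 cells, read out by a cell viability assay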
# Description: SANGER: Inhibition of human HSC-2 cell growth in a cell viability assay.
# [10] = test system: HTC-C3; type: functional, cell-based, Homo sapiens; details: Homo sapiens, HTC-C3;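 also: inhibition of cell growth, read out with a cell viability assay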
# Description: SANGER: Inhibition of human HTC-C3 cell growth in a cell viability assay.
# [11] = test system: HuCCT-1; type: functional, cell-based, Homo sapiens, HuCCT1; details: Homo sapiens, HuCCT-1;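 also: growth inhibition of HuCCT-1 cells, read out by a cell viability assay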
# Description: SANGER: Inhibition of human HuCCT1 cell growth in a cell viability assay.
# [12] = test system: KLE; type: functional, cell-based, Homo sapiens; details: Homo sapiens, KLE;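 also: growth inhibition of human KLE cells, read out with a cell viability assay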
# Description: SANGER: Inhibition of human KLE cell growth in a cell viability assay.
# [13] = test system: KM12; type: functional, cell-based, Homo sapiens; details: Homo sapiens, KM12;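 also: KM12 cell growth inhibition, read out with a cell viability assay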
# Description: SANGER: Inhibition of human KM12 cell growth in a cell viability assay.
# [14] = test system: KNS-42; type: functional, cell-based, Homo sapiens; details: Homo sapiens, KNS-42;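 also: growth inhibition of KNS-42 cells, read out with a cell viability assay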
# Description: SANGER: Inhibition of human KNS-42 cell growth in a cell viability assay.
# [15] = test system: KP-4; type: functional, cell-based, Homo sapiens; details: Homo sapiens, KP-4; read-out: IC50;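 also: human KP-4 cells, with growth inhibition read out through a cell viability assay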
# Description: SANGER: Inhibition of human KP-4 cell growth in a cell viability assay.
# [16] = test system: KP-N-YS; type: functional, cell-based; details: Homo sapiens;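 also: cell viability assay measuring inhibition of cell line growth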
# Description: SANGER: Inhibition of human KP-N-YS cell growth in a cell viability assay.
# [17] = test system: KYSE-180; type: functional, cell-based, Homo sapiens; details: Homo sapiens, KYSE-180;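 also: growth inhibition of KYSE-180 cells, read out with a cell viability assay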
# Description: SANGER: Inhibition of human KYSE-180 cell growth in a cell viability assay.
# [18] = test system: LCLC-103H cell line; type: functional, cell-based, Homo sapiens; details: Homo sapiens, LCLC-103H
# Description: SANGER: Inhibition of human LCLC-103H cell growth in a cell viability assay.
# [19] = test system: M059J; type: functional, cell-based, Homo sapiens; details: Homo sapiens, M059J;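 also: growth inhibition of M059J cells, read out with a cell viability assay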
# Description: SANGER: Inhibition of human M059J cell growth in a cell viability assay.
# [20] = test system: MDA-MB-175-VII; type: functional, cell-based, Homo sapiens; details: Homo sapiens, MDA-MB-175-VII
# [21] = test system: MDA-MB-361; type: functional, cell-based, Homo sapiens; details: Homo sapiens, MDA-MB-361
# [22] = test system: MDA-MB-415; type: functional, cell-based; details: Homo sapiens
# [23] = test system: MKN-7; type: functional, cell-based, Homo sapiens; details: Homo sapiens, MKN-7;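 also: growth inhibition of MKN-7 cells, read out with a cell viability assay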
# Description: SANGER: Inhibition of human MKN7 cell growth in a cell viability assay.
# [24] = test system: MSTO-211H; type: functional, cell-based, Homo sapiens; details: Homo sapiens, MSTO-211H
# Description: SANGER: Inhibition of human MSTO-211H cell growth in a cell viability assay.
# [25] = test system: NCI-H1437; type: functional, cell-based, Homo sapiens; details: Homo sapiens, NCI-H1437;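 also: growth inhibition of human NCI-H1437 cells, read out by a cell viability assay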
# Description: SANGER: Inhibition of human NCI-H1437 cell growth in a cell viability assay.
# [26] = test system: NCI-H1563; type: functional, cell-based, Homo sapiens; details: Homo sapiens, NCI-H1563;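 also: growth inhibition of human NCI-H1563 cells, read out with a cell viability assay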
# Description: SANGER: Inhibition of human NCI-H1563 cell growth in a cell viability assay.
# [27] = test system: NCI-H358; type: functional, cell-based, Homo sapiens; details: Homo sapiens, NCI-H358;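 also: growth inhibition of NCI-H358 human cells, read out with a cell viability assay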
# Description: SANGER: Inhibition of human NCI-H358 cell growth in a cell viability assay.
# [28] = test system: NMC-G1; type: functional, cell-based, Homo sapiens; details: Homo sapiens, NMC-G1;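 also: growth inhibition of the NMC-G1 cell line, measured with a cell viability read-out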
# Description: SANGER: Inhibition of human NMC-G1 cell growth in a cell viability assay.
# [29] = test system: NOS-1; type: functional, cell-based, Homo sapiens; details: Homo sapiens, NOS-1;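 also: growth inhibition of the human NOS-1 cell line, read out with a cell viability assay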
# Description: SANGER: Inhibition of human NOS-1 cell growth in a cell viability assay.
# [30] = test system: OAW-28; type: functional, cell-based, Homo sapiens; details: Homo sapiens, OAW-28;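 also: growth inhibition of OAW-28 cells, read out with a cell viability assay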
# Description: SANGER: Inhibition of human OAW-28 cell growth in a cell viability assay.
# [31] = test system: PFSK-1; type: functional, cell-based, Homo sapiens; details: Homo sapiens, PFSK-1;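 also: cell viability assay measuring how strongly compounds suppress growth of human PFSK-1 cells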
# Description: SANGER: Inhibition of human PFSK-1 cell growth in a cell viability assay.
# [32] = test system: RPMI-2650; type: functional, cell-based, Homo sapiens; details: Homo sapiens, RPMI-2650
# Description: SANGER: Inhibition of human RPMI-2650 cell growth in a cell viability assay.
# [33] = test system: Ramos-2G6-4C10; type: functional, cell-based; details: Homo sapiens;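 also: growth inhibition of the cell line, measured by a cell viability read-out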
# Description: SANGER: Inhibition of human Ramos-2G6-4C10 cell growth in a cell viability assay.
# [34] = test system: SK-HEP1; type: functional, cell-based, Homo sapiens, SK-HEP-1; details: Homo sapiens, SK-HEP1;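 also: cell viability readout used to quantify reduction in proliferation of human SK-HEP-1 cells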
# Description: SANGER: Inhibition of human SK-HEP-1 cell growth in a cell viability assay.
# [35] = test system: SK-MEL-30; type: functional, cell-based; details: Homo sapiens;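 also: growth inhibition of SK-MEL-30 cells, determined with a cell viability assay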
# Description: SANGER: Inhibition of human SK-MEL-30 cell growth in a cell viability assay.
# [36] = test system: SNU-C2B; type: functional, cell-based, Homo sapiens; details: Homo sapiens, SNU-C2B;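 also: cell viability readout used to measure compound-driven suppression of SNU-C2B cell proliferation, IC50 marking half-maximal growth inhibition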
# Description: SANGER: Inhibition of human SNU-C2B cell growth in a cell viability assay.
# [37] = test system: SW982; type: functional, cell-based; details: Homo sapiens;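 also: growth inhibition of SW982 cells, read out with a cell viability assay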
# Description: SANGER: Inhibition of human SW982 cell growth in a cell viability assay.
# [38] = test system: 8-MG-BA; type: functional, cell-based, Homo sapiens; details: Homo sapiens, 8-MG-BA;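 also: growth inhibition of 8-MG-BA cells, read out with a cell viability assay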
# Description: SANGER: Inhibition of human 8-MG-BA cell growth in a cell viability assay.
# [39] = test system: 8505C; type: functional, cell-based, Homo sapiens; details: Homo sapiens, 8505C
# Description: SANGER: Inhibition of human 8505C cell growth in a cell viability assay.
# [40] = test system: A204; type: functional, cell-based, Homo sapiens; details: Homo sapiens, A204;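 also: growth inhibition of human A204 cells, read out with a cell viability assay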
# Description: SANGER: Inhibition of human A204 cell growth in a cell viability assay.
# [41] = test system: ACHN; type: functional, cell-based, Homo sapiens; details: Homo sapiens, ACHN;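 also: cell viability read-out used to gauge how strongly growth of human ACHN cells is suppressed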
# Description: SANGER: Inhibition of human ACHN cell growth in a cell viability assay.
# [42] = test system: BHY; type: functional, cell-based, Homo sapiens; details: Homo sapiens, BHY;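 also: cell growth inhibition read out by a viability assay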
# Description: SANGER: Inhibition of human BHY cell growth in a cell viability assay.
# [43] = test system: CAKI-1; type: functional, cell-based, Homo sapiens; details: Homo sapiens, CAKI-1;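 also: growth inhibition of CAKI-1 cells, measured by a cell viability assay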
# Description: SANGER: Inhibition of human CAKI-1 cell growth in a cell viability assay.
# [44] = test system: TE-11; type: functional, cell-based, Homo sapiens; details: Homo sapiens, TE-11;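 also: growth inhibition of human TE-11 cells, read out by a cell viability assay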
# Description: SANGER: Inhibition of human TE-11 cell growth in a cell viability assay.
# [45] = test system: TE-12; type: functional, cell-based; details: Homo sapiens;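 also: growth inhibition of TE-12 cells, read out by a cell viability assay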
# Description: SANGER: Inhibition of human TE-12 cell growth in a cell viability assay.
# [46] = test system: WM-115; type: functional, cell-based, Homo sapiens; details: Homo sapiens, WM-115
# Description: SANGER: Inhibition of human WM-115 cell growth in a cell viability assay.
# [47] = test system: COLO-678; type: functional, cell-based, Homo sapiens; details: Homo sapiens, COLO-678
# Description: SANGER: Inhibition of human COLO-678 cell growth in a cell viability assay.
# [48] = test system: COLO-680N; type: functional, cell-based, Homo sapiens; details: Homo sapiens, COLO-680N;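 also: cell viability assay used to measure inhibition of COLO-680N cell growth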
# Description: SANGER: Inhibition of human COLO-680N cell growth in a cell viability assay.
# [49] = test system: LB996-RCC; type: functional, cell-based; details: Homo sapiens
# Description: SANGER: Inhibition of human LB996-RCC cell growth in a cell viability assay.
smiles,measurement,setting,value
O=C(c1cc(Cc2n[nH]c(=O)c3ccccc23)ccc1F)N1CCN(C(=O)C2CC2)CC1 [OLAPARIB],IC50,[1],> 5000 nM
same,IC50,[2],> 5000 nM
same,IC50,[3],> 5000 nM
same,IC50,[4],> 5000 nM
same,IC50,[5],> 5000 nM
same,IC50,[6],> 5000 nM
same,IC50,[7],> 5000 nM
same,IC50,[8],> 5000 nM
same,IC50,[9],> 5000 nM
same,IC50,[10],> 5000 nM
same,IC50,[11],> 5000 nM
same,IC50,[12],> 5000 nM
same,IC50,[13],> 5000 nM
same,IC50,[14],> 5000 nM
same,IC50,[15],> 5000 nM
same,IC50,[16],> 5000 nM
same,IC50,[17],> 5000 nM
same,IC50,[18],> 5000 nM
same,IC50,[19],> 5000 nM
same,IC50,[20],> 5000 nM
same,IC50,[21],> 5000 nM
same,IC50,[22],> 5000 nM
same,IC50,[23],> 5000 nM
same,IC50,[24],> 5000 nM
same,IC50,[25],> 5000 nM
same,IC50,[26],> 5000 nM
same,IC50,[27],> 5000 nM
same,IC50,[28],> 5000 nM
same,IC50,[29],> 5000 nM
same,IC50,[30],> 5000 nM
same,IC50,[31],> 5000 nM
same,IC50,[32],> 5000 nM
same,IC50,[33],> 5000 nM
same,IC50,[34],> 5000 nM
same,IC50,[35],> 5000 nM
same,IC50,[36],> 5000 nM
same,IC50,[37],> 5000 nM
same,IC50,[38],> 5000 nM
same,IC50,[39],> 5000 nM
same,IC50,[40],> 5000 nM
same,IC50,[41],> 5000 nM
same,IC50,[42],> 5000 nM
same,IC50,[43],> 5000 nM
same,IC50,[44],> 5000 nM
same,IC50,[45],> 5000 nM
same,IC50,[46],> 5000 nM
same,IC50,[47],> 5000 nM
same,IC50,[48],> 5000 nM
COc1ccc(-c2ccc3c(N4CCOC[C@@H]4C)nc(N4CCOC[C@@H]4C)nc3n2)cc1CO [AZD-8055],IC50,[1],423 nM
same,IC50,[2],787 nM
same,IC50,[4],680 nM
same,IC50,[5],342 nM
same,IC50,[6],274 nM
same,IC50,[7],> 2000 nM
same,IC50,[8],530 nM
same,IC50,[9],1910 nM
same,IC50,[10],732 nM
same,IC50,[11],> 2000 nM
same,IC50,[12],> 2000 nM
same,IC50,[13],1800 nM
same,IC50,[14],> 2000 nM
same,IC50,[15],> 2000 nM
same,IC50,[16],431 nM
same,IC50,[17],1110 nM
same,IC50,[49],> 2000 nM
same,IC50,[18],> 2000 nM
same,IC50,[19],> 2000 nM
same,IC50,[20],577 nM
same,IC50,[21],509 nM
same,IC50,[22],1220 nM
same,IC50,[23],1220 nM
same,IC50,[24],578 nM
same,IC50,[25],606 nM
same,IC50,[26],789 nM
same,IC50,[27],> 2000 nM
same,IC50,[28],1310 nM
same,IC50,[29],411 nM
same,IC50,[30],> 2000 nM
same,IC50,[31],830 nM
same,IC50,[32],1680 nM
same,IC50,[33],170 nM
same,IC50,[34],> 2000 nM
same,IC50,[35],> 2000 nM
same,IC50,[36],> 2000 nM
same,IC50,[37],685 nM
same,IC50,[38],1980 nM
same,IC50,[39],1290 nM
same,IC50,[40],190 nM
same,IC50,[41],1910 nM
same,IC50,[42],887 nM
same,IC50,[43],746 nM
same,IC50,[44],> 2000 nM
same,IC50,[45],1410 nM
same,IC50,[46],689 nM
same,IC50,[47],> 2000 nM
same,IC50,[48],1820 nM
COc1cc(F)c(F)c(Nc2ccc(I)cc2F)c1NS(=O)(=O)C1(CC(O)CO)CC1 (centres undefined),IC50,[1],> 5000 nM
same,IC50,[2],981 nM
same,IC50,[4],962 nM
same,IC50,[5],> 5000 nM
same,IC50,[6],> 5000 nM
same,IC50,[7],> 5000 nM
same,IC50,[8],> 5000 nM
same,IC50,[9],> 5000 nM
same,IC50,[10],122 nM
same,IC50,[11],905 nM
same,IC50,[12],> 5000 nM
same,IC50,[13],> 5000 nM
same,IC50,[14],> 5000 nM
same,IC50,[15],> 5000 nM
same,IC50,[16],> 5000 nM
same,IC50,[17],> 5000 nM
same,IC50,[49],> 5000 nM
same,IC50,[18],> 5000 nM
same,IC50,[19],> 5000 nM
same,IC50,[20],2570 nM
same,IC50,[21],> 5000 nM
same,IC50,[22],> 5000 nM
same,IC50,[23],> 5000 nM
same,IC50,[24],3080 nM
same,IC50,[25],702 nM
same,IC50,[26],4470 nM
same,IC50,[27],> 5000 nM
same,IC50,[28],> 5000 nM
same,IC50,[29],> 5000 nM
same,IC50,[30],> 5000 nM
same,IC50,[31],> 5000 nM
same,IC50,[32],> 5000 nM
same,IC50,[33],> 5000 nM
same,IC50,[34],2050 nM
same,IC50,[35],> 5000 nM
same,IC50,[36],> 5000 nM
same,IC50,[37],436 nM
same,IC50,[38],> 5000 nM
same,IC50,[39],2580 nM
same,IC50,[40],> 5000 nM
same,IC50,[41],> 5000 nM
same,IC50,[42],3290 nM
same,IC50,[43],> 5000 nM
same,IC50,[44],> 5000 nM
same,IC50,[45],> 5000 nM
same,IC50,[46],421 nM
same,IC50,[47],2110 nM
same,IC50,[48],> 5000 nM
